The numbers were not newly measured in patent US20080261897A1, “Formulation Containing a Polyphenol-Containing Composition and Isomaltulose” (priority 2005, published 2008), which cites them from elsewhere.

On to `O=C(CO)[C@@H](O)[C@H](O)[C@H](O)CO[C@H]1O[C@H](CO)[C@@H](O)[C@H](O)[C@H]1O` [isomaltulose, 6-O-α-D-glucopyranosylfructose], for which the “solubility of isomaltulose in water” value is 0.49 g of anhydrous isomaltulose per g of water.
